Source: publication PMC12856317, “A reversible feedback mechanism regulating mitochondrial heme synthesis” (The Journal of Biological Chemistry, 2025)
Positions count from the first letter of the chain named.

Experiments:
Assay in all cases: Colorimetric ALA release activity assay, hemin inhibition of holoenzyme
Format in all cases: biochemical
[1] = target: T1, WT holoALAS2 (residues 54–587) (Homo sapiens, UniProt P22557); details: 0.1 μM–60 μM hemin titrated into holoALAS2, rate of ALA release
T1 construct: His6-SUMO (N, cleaved yes); made in house; host or cells: Escherichia coli BL21-Codon Plus (DE3)-RIL
T1 sequence (P22557 54-587): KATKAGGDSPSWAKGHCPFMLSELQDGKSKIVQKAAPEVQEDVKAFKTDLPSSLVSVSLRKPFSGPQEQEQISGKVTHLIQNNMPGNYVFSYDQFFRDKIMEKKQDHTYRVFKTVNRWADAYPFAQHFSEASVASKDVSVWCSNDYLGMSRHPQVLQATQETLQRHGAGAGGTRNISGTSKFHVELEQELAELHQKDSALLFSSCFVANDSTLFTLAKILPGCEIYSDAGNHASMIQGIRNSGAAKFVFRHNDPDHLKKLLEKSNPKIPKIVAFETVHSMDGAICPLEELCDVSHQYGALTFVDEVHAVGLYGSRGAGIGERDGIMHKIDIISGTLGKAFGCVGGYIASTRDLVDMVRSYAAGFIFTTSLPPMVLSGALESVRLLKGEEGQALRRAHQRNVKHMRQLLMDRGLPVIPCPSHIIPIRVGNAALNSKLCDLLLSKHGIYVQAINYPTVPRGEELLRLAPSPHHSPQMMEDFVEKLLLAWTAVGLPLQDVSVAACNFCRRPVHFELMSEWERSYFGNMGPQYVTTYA
Experimental: (§1) A discontinuous colorimetric activity assay adapted from Shoolingin-Jordan et al. and Bailey et al. was used to measure the enzyme activity ([48], [74]). The reaction was initiated by adding 100 nM purified enzyme to 50 mM potassium phosphate, pH 7.0, 10 mM MgCl2, 1 mM DTT, 100 mM glycine, and 300 μM succinyl-CoA (175 μl total). The reaction was incubated at 37 °C for 15 min and terminated with 100 μl of cold 10% trichloroacetic acid. The precipitated protein was removed by centrifugation for 5 min at 13,000g, and 240 μl of the supernatant was mixed with 240 μl of 1 M sodium acetate, pH 4.6. To derivatize ALA, 20 μl of acetylacetone was added to the mixture and boiled at 100 °C for 10 min. After the sample was cooled for 20 min, 100 μl aliquots were transferred into a clear 96-well plate in triplicate. An equal volume of Ehrlich’s reagent (p-Dimethylaminobenzaldehyde, DMAB) was added to each well, and the absorbance was monitored at 553 nm using a microplate reader (Thermo Fisher Scientific). The peak absorbance value was converted to molar ALA concentration using ε553 = 60,400 M^−1 cm^−1.
(§2) Inhibition of enzyme activity was determined by titrating hemin (0.1 μM–60 μM) into the substrate mixture before initiating the reaction upon enzyme addition. Hemin was dissolved in 100% dimethyl sulfoxide (DMSO) (ε403 nm = 170,000 M^−1 cm^−1) and serially diluted in 100% DMSO to prepare stock solutions for each concentration. The final DMSO concentration in the reaction mixture was 2%. All experiments were performed with a minimum of three biological replicates, each with three technical replicates. Data were fitted using nonlinear regression to generate an inhibitor dose-response curve (IC50) or an agonist dose-response curve (EC50), and statistical significance was determined using a one-way ANOVA with GraphPad Prism 10.

[2] = target: T2, holoALAS2 Cys-mut (C70A/C555A/C558A) (Homo sapiens, UniProt P22557, C555A/C558A/C70A); details: 0.1 μM–60 μM hemin titrated into holoenzyme
T2 construct: Site-directed mutagenesis was performed on the mature ALAS2 (residues 54–587) construct to generate truncations and cysteine mutants; His6-SUMO (N, cleaved yes); made in house; host or cells: Escherichia coli BL21-Codon Plus (DE3)-RIL
T2 sequence (P22557 54-587 C70A/C555A/C558A): T1 sequence (P22557 54-587) with C17A, C502A, C505A
Experimental: as §1, §2

[3] = target: T3, holoALAS2 ΔN (residues 75–587) (Homo sapiens, UniProt P22557)
T3 construct: a truncation without HRM3 (ΔN, residues 75–587); His6-SUMO (N, cleaved yes); made in house; host or cells: Escherichia coli BL21-Codon Plus (DE3)-RIL
T3 sequence (P22557 75-587): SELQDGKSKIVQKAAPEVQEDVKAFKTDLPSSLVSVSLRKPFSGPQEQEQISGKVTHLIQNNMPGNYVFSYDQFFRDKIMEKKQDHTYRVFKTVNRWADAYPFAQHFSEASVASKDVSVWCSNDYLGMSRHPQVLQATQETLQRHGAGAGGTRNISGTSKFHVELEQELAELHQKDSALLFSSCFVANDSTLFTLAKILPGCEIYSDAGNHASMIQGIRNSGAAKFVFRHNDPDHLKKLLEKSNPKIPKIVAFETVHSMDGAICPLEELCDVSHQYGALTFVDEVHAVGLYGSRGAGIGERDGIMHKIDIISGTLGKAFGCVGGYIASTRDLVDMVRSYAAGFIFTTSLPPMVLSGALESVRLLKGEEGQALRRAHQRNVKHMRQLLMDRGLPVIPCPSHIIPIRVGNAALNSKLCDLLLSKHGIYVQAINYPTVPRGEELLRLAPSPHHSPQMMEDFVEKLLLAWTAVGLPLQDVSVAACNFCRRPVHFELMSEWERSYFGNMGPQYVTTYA
Experimental: as §1, §2

ferric chloride heme [hemin]
IC50 [1]: 18.7 ± 0.5 µM
IC50 [2]: 24.8 ± 0.5 µM
IC50 fold higher than WT ([3]; ΔN versus WT): ~2 fold
IC50 ([3]; ΔN, 0.1 μM–60 μM hemin titrated into holoenzyme): 35.8 ± 0.4 µM
